Assay [1] deals with B16F10 cells (mouse melanocytes). The assay can be described thus: inhibition of α-MSH-stimulated melanin synthesis in cells. It is filed as cell-based. As to conditions: 72 hours; for Melanin amount (of Control): no treatment = 100; for increase in melanin induced by α-MSH stimulation: 100 nM α-MSH, peptide 1 and 10 μM. The protocol: • 1. […] Specifically, 1×10^5 B16F10 cells (mouse melanocytes) were seeded into each well of a 6-well microplate with DMEM serum medium. The cells were cultured in an incubator at a temperature of 37° C. and with 5% CO2 for 24 hours. […] The concentration of each peptide in the medium was set to 1 and 10 μM. […] Afterward, to measure the amount of extracellular melanin, the supernatant was taken, and the absorbance of free melanin in the medium was measured at a wavelength of 400 nm. To measure the amount of intracellular melanin, the cells were washed with PBS after removing the medium, and then the cells were lysed with 1 M NaOH at a temperature of 60° C. for 30 minutes, and the absorbance was measured at a wavelength of 400 nm. The amount of free melanin and intracellular melanin measured by absorbance were quantified, and the results are shown in Table 2. • 3.

A further assay relates to human dermal fibroblasts. As to the kind of experiment: immunofluorescence analysis of intracellular collagen synthesis (anti-COL1A2). It is filed as cell-based. As to conditions: peptide 1 and 10 μM, 24 hours, compared to untreated control group (FIG. 3). As for the experimental part: • 1. Immunofluorescence analysis was performed to evaluate the effects of the peptides of Example 1 on intracellular collagen synthesis. • 2. Specifically, 4.5×10^4 human dermal fibroblasts were seeded into each well of a 24-well microplate along with CEFOgro Human MSC Growth Medium). The cells were cultured in an incubator at a temperature of 37° C. and with 5% CO2 for 24 hours. Next, the cells were treated with each of the peptides of Example 1, and the cells were incubated under the same conditions for 24 hours. The concentration of each peptide in the medium was set to 1 and 10 μM. Out of two control groups, one received no treatment, and the other was treated with 1 μM retinol. The cells in each well were washed with PBS and fixed by treatment with 4% formaldehyde for 15 minutes, and then the cells were treated with 0.1% TritonX-100 for 5 minutes to increase antibody permeability into the cells. The cells were washed with PBS solution and treated with anti-COL1A2 polyclonal antibodies (Santa Cruz, CA, USA) for 1 hour. Next, the cells were treated with mouse anti-goat IgG-FITC for 40 minutes. To stain the cytoskeleton, the cells were treated with Phalloidin-Rhodamin for 40 minutes. After mounting with DAPI-added reagent for cell nucleus staining, the cells were observed using a fluorescence microscope (Logosbio/CelenaS, Korea) and quantified using a program (NIS-Eliments-3.1).

A further assay concerns RAR and RXR. As to the kind of experiment: in-situ proximity ligation assay (PLA) of physical binding between RAR and RXR in HaCaT cells. As to conditions: peptide 1 and 10 μM, 30 minutes, compared to untreated control group (FIG. 1). It is filed as cell-based, human. As for the experimental part: • 1. Retinol regulates the transcription of target DNA by inducing the binding between Retinoic acid receptor (RAR) and Retinoid X Receptor (RXR). To confirm whether the peptides of Example 1 activate the binding between RXR/RAR, the effects of the peptides on the physical binding between RAR and RXR were evaluated using an in-situ proximity ligation assay (PLA) method. • 2. Specifically, 4.5×10^4 HaCaT cells (human keratinocytes) were seeded into each well of a 24-well microplate with DMEM serum medium. The cells were cultured in an incubator at a temperature of 37° C. and with 5% CO2 for 24 hours. Next, the cells were treated with each of the peptides of Example 1, and the cells were incubated under the same conditions for 30 minutes. The concentration of each peptide in the medium was set to 1 and 10 μM. The control group received no treatment. Afterward, the cells in each well were washed with PBS and fixed by treatment with 2% formaldehyde for 15 minutes, and then the cells were treated with 0.1% TritonX-100 for 5 minutes to increase antibody permeability into the cells. […] Afterward, the physical interaction of RAR and RXR antibodies was quantified by measuring luminescence signals (PLA signals) detected in each cell using a fluorescence microscope (Logosbio/CelenaS, Korea), and the results are shown in FIG. 1. • 4. […]

Assay [2] relates to P53 and POLII (RNA Polymerase II). The assay can be described thus: in-situ proximity ligation assay (PLA) of physical binding between P53 and POLII in HaCaT cells. Format: cell-based, human. As to conditions: peptide 1 and 10 μM, 30 minutes, compared to untreated control group (FIG. 2). The protocol: • 1. To confirm whether the peptides of Example 1 increase the transcriptional activity of P53, which was related to cell anti-aging, cells were treated with the peptides of Example 1, and then the effects of the peptides on the physical binding between P53 and POLII (RNA Polymerase II) was evaluated using an in-situ proximity ligation assay (PLA) method. • 2. Specifically, 4.5×10^4 HaCaT cells (human keratinocytes) were seeded into each well of a 24-well microplate with DMEM serum medium. The cells were cultured in an incubator at a temperature of 37° C. and with 5% CO2 for 24 hours. Next, the cells were treated with each of the peptides of Example 1, and the cells were incubated under the same conditions for 30 minutes. The concentration of each peptide in the medium was set to 1 and 10 μM. The control group received no treatment. Afterward, the cells in each well were washed with PBS and fixed by treatment with 2% formaldehyde for 15 minutes, and then the cells were treated with 0.1% TritonX-100 for 5 minutes to increase antibody permeability into the cells. […] Afterward, the physical interaction of P53 and POLII antibodies was quantified by measuring luminescence signals (PLA signals) detected in each cell using a fluorescence microscope (Logosbio/CelenaS, Korea), and the results are shown in FIG. 2. • 4. […]

Setting [3] is: α-MSH (100 nM) + test substance 1 uM.
Setting [4] is: α-MSH (100 nM) + test substance 10 uM.

For the compound `CC1=C(/C=C/C(C)=C/C=C/C(C)=C/CO)C(C)(C)CCC1` [Retinol, retinol, reference compound], in assay [1] (setting [3]), the Melanin amount (of Control) was determined as 114%.

Turning to Ile-Gln-Glu-Met (IQEM) [Raragin A], the “increase in melanin induced by α-MSH stimulation” value in assay [1] is “reduced”. The Melanin amount (of Control) in assay [1] (setting [3]) turned out to be 111%; in assay [1] (setting [4]), 107%. In the assay on human dermal fibroblasts, the collagen synthesis result is reported as “significantly increased”. Also, the “physical binding between RAR and RXR (PLA signals)” value in the assay with RAR and RXR is “increased”. The “physical binding between P53 and POLII (PLA signals)” value in assay [2] is “increased”.

Take Thr-Val-Glu-Phe (TVEF) [Raragin B]: in assay [1], the “increase in melanin induced by α-MSH stimulation” value is listed as “reduced”. The Melanin amount (of Control) in assay [1] (setting [3]) was 109%; in assay [1] (setting [4]) it was 106%. The collagen synthesis result in the assay with human dermal fibroblasts is “significantly increased”. Moreover, the “physical binding between RAR and RXR (PLA signals)” value in the assay on RAR and RXR is “increased”. Also, the “physical binding between P53 and POLII (PLA signals)” value in assay [2] is “increased”.

(Values after patent US20260232561A1, “PEPTIDE ACTIVATING RETINOIC ACID RECEPTOR, AND COSMETIC COMPOSITION CONTAINING SAME” (SUPADELIXIR INC., priority 2023, published 2026).)
